Assay results from patent US20180219160A1, “BENZOBIS(THIADIAZOLE) DERIVATIVE, INK COMPRISING THE SAME, AND ORGANIC ELECTRONIC DEVICE USING THE SAME” (UBE INDUSTRIES, LTD., priority 2014, published 2018).

Assays:
[1] = Evaluation of solubility in organic solvents (visual observation of complete dissolution); type: physicochemical
Protocol: [Evaluation of Solubility] The evaluation of the solubility of the synthesized compound was conducted by the following method.
About 2-3 mg of the synthesized compound was precisely weighed, and each solvent was added to the compound such that a predetermined concentration of the solute (0.3 wt %, 0.2 wt %, 0.1 wt %) was reached. The resultant mixture was stirred for 30 minutes at a predetermined temperature, and then it was evaluated by visual appearance observation whether or not the solute (synthesized compound) was completely dissolved in the solvent, which was the result of the evaluation of the solubility. As the solvent, chloroform (boiling point 61° C.), toluene (boiling point 111° C.), anisole (boiling point 154° C.), mesitylene (boiling point 165° C.), ortho-dichlorobenzene (boiling point 181° C.) and 1-methylnaphthalene (boiling point 241° C.) were used.

[2] = Thermal weight loss analysis (initial decomposition temperature); type: physicochemical
[3] = 1-methylnaphthalene, room temperature (25° C.)
[4] = chloroform, room temperature (25° C.)
[5] = mesitylene, room temperature (25° C.)

SMILES: CCCCCCN1C(=O)c2cc(-c3c4c(c(-c5cc6c(s5)C(=O)N(CCCCCC)C6=O)c5nsnc35)N=S=N4)sc2C1=O [Compound (12-6)]
- solubility (concentration completely dissolved) [1, 3]: ≥ 0.1 wt %
- solubility (concentration completely dissolved) [1, 4]: ≥ 0.2 wt %
- solubility (concentration completely dissolved) ([1]; mesitylene, 80° C.): ≥ 0.3 wt %
- solubility (concentration completely dissolved) ([1]; toluene, 80° C.): ≥ 0.3 wt %
- initial decomposition temperature [2]: 364 °C

SMILES: CCCCCCCCN1C(=O)c2cc(-c3c4c(c(-c5cc6c(s5)C(=O)N(CCCCCCCC)C6=O)c5nsnc35)N=S=N4)sc2C1=O [Compound (12-8)]
- solubility (concentration completely dissolved) [1, 3]: ≥ 0.3 wt %
- solubility (concentration completely dissolved) [1, 4]: ≥ 0.2 wt %
- solubility (concentration completely dissolved) [1, 5]: ≥ 0.3 wt %
- solubility (concentration completely dissolved) ([1]; toluene, room temperature (25° C.)): ≥ 0.3 wt %
- initial decomposition temperature [2]: 367 °C

SMILES: CCCCCCCCCCCCN1C(=O)c2cc(-c3c4c(c(-c5cc6c(s5)C(=O)N(CCCCCCCCCCCC)C6=O)c5nsnc35)N=S=N4)sc2C1=O [Compound (12-12)]
- solubility (concentration completely dissolved) [1, 4]: ≥ 0.1 wt %
- solubility (concentration completely dissolved) ([1]; mesitylene, 60° C.): ≥ 0.3 wt %
- solubility (concentration completely dissolved) ([1]; toluene, 60° C.): ≥ 0.3 wt %
- initial decomposition temperature [2]: 360 °C

SMILES: CCCCC(CC)CN1C(=O)c2cc(-c3c4c(c(-c5cc6c(s5)C(=O)N(CC(CC)CCCC)C6=O)c5nsnc35)N=S=N4)sc2C1=O (stereo not drawn) [Compound (12-EH)]
- solubility (concentration completely dissolved) [1, 3]: ≥ 0.3 wt %
- solubility (concentration completely dissolved) [1, 4]: ≥ 0.2 wt %
- solubility (concentration completely dissolved) ([1]; mesitylene, 80° C.): ≥ 0.3 wt %
- solubility (concentration completely dissolved) ([1]; ortho-dichlorobenzene, room temperature (25° C.)): ≥ 0.3 wt/o
- solubility (concentration completely dissolved) ([1]; toluene, 60° C.): ≥ 0.3 wt %
- initial decomposition temperature [2]: 369 °C

SMILES: O=C1c2cc(-c3c4c(c(-c5cc6c(s5)C(=O)N(CC(F)(F)C(F)(F)C(F)(F)F)C6=O)c5nsnc35)N=S=N4)sc2C(=O)N1CC(F)(F)C(F)(F)C(F)(F)F [Compound (12-HepFBu)]
- solubility (concentration completely dissolved) ([1]; anisole, room temperature (25° C.)): ≥ 0.1 wt %
- solubility (concentration completely dissolved) [1, 4]: ≥ 0.1 wt %
- solubility (concentration completely dissolved) [1, 5]: ≥ 0.1 wt %
- initial decomposition temperature [2]: 367 °C

SMILES: CN1C(=O)c2cc(-c3c4c(c(-c5cc6c(s5)C(=O)N(C)C6=O)c5nsnc35)N=S=N4)sc2C1=O [Compound (12-Me)]
- initial decomposition temperature [2]: 367 °C

SMILES: CN1C(=O)c2cc3cc(-c4c5c(c(-c6cc7cc8c(cc7s6)C(=O)N(C)C8=O)c6nsnc46)N=S=N5)sc3cc2C1=O [Compound (22-1)]
- initial decomposition temperature [2]: 475 °C

SMILES: CCCCCCN1C(=O)c2cc3cc(-c4c5c(c(-c6cc7cc8c(cc7s6)C(=O)N(CCCCCC)C8=O)c6nsnc46)N=S=N5)sc3cc2C1=O [Compound (22-6)]
- initial decomposition temperature [2]: 405 °C
